A word on the IC50: it is the midpoint of a concentration-inhibition curve.

The record followed here is BindingDB's records for PubMed 32485533 (Isf College of Pharmacy, 2020).

The assay in a line: Inhibition of human recombinant sPLA2-V at 1 uM.

For the molecule `COc1ccc(-c2nc3c(C(N)=O)cccc3[nH]2)cc1` [2-(4-methoxyphenyl)-1H-1,3-benzodiazole-4-carboxamide], the half-maximal inhibitory concentration (IC50) was 3.22 µM.
